In US20020137929A1, “1 - (3-heterocyclylphenyl) isothiourea, -isourea, -guanidine and -amidine herbicidal agents” (Intellectual Property Department, BASF Aktiengesellschaft, priority 1998, published 2002):

Tests used:
MOOVA (Monochoria) = test: Preemergence weed control under flooded paddy conditions; type: in vivo, Monochoria vaginalis; conditions: rated 3-4 weeks after treatment
Outline: (§1)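 Ratings on a 0-9 visual scale cover stand, vigor, malformation, size, chlorosis and overall appearance relative to a control, taken three to four weeks post-treatment. Application was into flood water over freshly sown silt loam at roughly 0.0313 to 0.500 kg/ha.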

ECHCG (Barnyardgrass) = test: Preemergence herbicidal evaluation; type: in vivo, Echinochloa crus-galli; conditions: rated 4-5 weeks after treatment
Outline: (§2)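 Seeds were mixed with potting soil and planted on about one inch of soil, then sprayed with test compound in aqueous acetone at about 0.0156 to 0.500 kg per hectare. Plants grew under standard greenhouse care and were visually rated 0-9 against untreated controls 4-5 weeks post-treatment.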

ABUTH (Velvetleaf) = test: Preemergence herbicidal evaluation; type: in vivo, Abutilon theophrasti; conditions: rated 4-5 weeks after treatment
Outline: as §2

[1] = system: TRZAWR (Wheat, Winter, cv Riband); test: Preemergence herbicidal evaluation; type: in vivo, Triticum aestivum; conditions: rated 4-5 weeks after treatment
Outline: as §2

[2] = system: IPOHE (Morningglory, Ivyleaf); test: Preemergence herbicidal evaluation; type: in vivo, Ipomoea hederacea; conditions: rated 4-5 weeks after treatment
Outline: as §2

[3] = system: IPOHE (Morningglory, Ivyleaf); test: Postemergence herbicidal evaluation; type: in vivo, Ipomoea hederacea; conditions: postemergence
Outline: (§3)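 Herbicidal effect was judged by eye on a 0–9 scale covering stand, vigor, deformity, size and chlorosis, compared with controls, four to five weeks after seedlings about two weeks old were sprayed (40 psi, ~0.0156–0.500 kg/ha).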

[4] = system: GLXMAW (Soybean, Williams); test: Preemergence herbicidal evaluation; type: in vivo, Glycine max, (L.) Merr. cv Williams; conditions: rated 4-5 weeks after treatment
Outline: as §2

CASOB (Sicklepod) [5] = test: Postemergence herbicidal evaluation; type: in vivo, Cassia obtusifolia; conditions: postemergence
Outline: as §3

ZEAMX (Corn, Field) = test: Preemergence herbicidal evaluation; type: in vivo, Zea mays; conditions: rated 4-5 weeks after treatment
Outline: as §2

CASOB (Sicklepod) [6] = test: Preemergence herbicidal evaluation; type: in vivo, Cassia obtusifolia; conditions: rated 4-5 weeks after treatment
Outline: as §2

[7] = system: SAGPY (Arrowhead (Pygmaea)); test: Preemergence weed control under flooded paddy conditions; type: in vivo, Sagittaria pygmaea; conditions: rated 3-4 weeks after treatment
Outline: as §1

GALAP (Galium) = test: Postemergence herbicidal evaluation; type: in vivo, Galium aparine; conditions: postemergence
Outline: as §3

AMBEL (Ragweed, Common) = test: Postemergence herbicidal evaluation; type: in vivo, Ambrosia artemisifolia; conditions: postemergence
Outline: as §3

[8] = rate 0.0156 kg/ha, rating scale 0-9
[9] = rate 0.0313 kg/ha, rating scale 0-9
[10] = rate 0.0625 kg/ha, rating scale 0-9
[11] = rate 0.1250 kg/ha, rating scale 0-9
[12] = rate 0.2500 kg/ha, rating scale 0-9

Cn1c(C(F)(F)F)cc(=O)n(-c2cc(N=C3SCC(=O)N3Cc3cccc(C(F)(F)F)c3)c(Cl)cc2F)c1=O [Compound 142, 3-{4-Chloro-2-fluoro-5-{{3-[m-(trifluoromethyl)benzyl]-4-oxo-2-thiazolidinylidene}-amino}phenyl}-1-methyl-6-(trifluoromethyl)-2,4(1H,3H)-pyrimidinedione]
herbicidal effect rating, MOOVA (MOOVA (Monochoria); 0.0313 kg/ha): 6.0
herbicidal effect rating, MOOVA (MOOVA (Monochoria); 0.0625 kg/ha): 7.0
herbicidal effect rating, MOOVA (MOOVA (Monochoria); 0.1250 kg/ha): 9.0
herbicidal effect rating, MOOVA (MOOVA (Monochoria); 0.2500 kg/ha): 8.0
Preemergence herbicidal rating ECHCG (ECHCG (Barnyardgrass); [8]): 0.0
Preemergence herbicidal rating ECHCG (ECHCG (Barnyardgrass); [9]): 0.0
Preemergence herbicidal rating ECHCG (ECHCG (Barnyardgrass); [10]): 0.0
Preemergence herbicidal rating ECHCG (ECHCG (Barnyardgrass); [11]): 0.0
Preemergence herbicidal rating ECHCG (ECHCG (Barnyardgrass); [12]): 0.0
Preemergence herbicidal rating ABUTH (ABUTH (Velvetleaf); [8]): 0.0
Preemergence herbicidal rating ABUTH (ABUTH (Velvetleaf); [9]): 1.0
Preemergence herbicidal rating ABUTH (ABUTH (Velvetleaf); [10]): 1.0
Preemergence herbicidal rating ABUTH (ABUTH (Velvetleaf); [11]): 4.0
Preemergence herbicidal rating ABUTH (ABUTH (Velvetleaf); [12]): 9.0
Preemergence herbicidal rating TRZAWR [1, 8]: 0.0
Preemergence herbicidal rating TRZAWR [1, 9]: 0.0
Preemergence herbicidal rating TRZAWR [1, 10]: 0.0
Preemergence herbicidal rating TRZAWR [1, 11]: 0.0
Preemergence herbicidal rating TRZAWR [1, 12]: 0.0
Preemergence herbicidal rating IPOHE [2, 8]: 0.0
Preemergence herbicidal rating IPOHE [2, 9]: 0.0
Preemergence herbicidal rating IPOHE [2, 10]: 0.0
Preemergence herbicidal rating IPOHE [2, 11]: 1.0
Preemergence herbicidal rating IPOHE [2, 12]: 2.0
herbicidal rating IPOHE ([3]; rate 0.0156 kg/ha): 7.0
herbicidal rating IPOHE ([3]; rate 0.0313 kg/ha): 7.0
herbicidal rating IPOHE ([3]; rate 0.0625 kg/ha): 9.0
Preemergence herbicidal rating GLXMAW [4, 8]: 1.0
Preemergence herbicidal rating GLXMAW [4, 9]: 0.0
Preemergence herbicidal rating GLXMAW [4, 10]: 0.0
Preemergence herbicidal rating GLXMAW [4, 11]: 0.0
Preemergence herbicidal rating GLXMAW [4, 12]: 1.0
herbicidal rating CASOB (CASOB (Sicklepod) [5]; rate 0.0156 kg/ha): 0.0
herbicidal rating CASOB (CASOB (Sicklepod) [5]; rate 0.0313 kg/ha): 1.0
herbicidal rating CASOB (CASOB (Sicklepod) [5]; rate 0.0625 kg/ha): 3.0
Preemergence herbicidal rating ZEAMX (ZEAMX (Corn, Field); [8]): 0.0
Preemergence herbicidal rating ZEAMX (ZEAMX (Corn, Field); [9]): 0.0
Preemergence herbicidal rating ZEAMX (ZEAMX (Corn, Field); [10]): 0.0
Preemergence herbicidal rating ZEAMX (ZEAMX (Corn, Field); [11]): 2.0
Preemergence herbicidal rating ZEAMX (ZEAMX (Corn, Field); [12]): 2.0
Preemergence herbicidal rating CASOB (CASOB (Sicklepod) [6]; [8]): 1.0
Preemergence herbicidal rating CASOB (CASOB (Sicklepod) [6]; [9]): 0.0
Preemergence herbicidal rating CASOB (CASOB (Sicklepod) [6]; [10]): 2.0
Preemergence herbicidal rating CASOB (CASOB (Sicklepod) [6]; [11]): 1.0
Preemergence herbicidal rating CASOB (CASOB (Sicklepod) [6]; [12]): 0.0
herbicidal effect rating, SAGPY ([7]; 0.0313 kg/ha): 0.0
herbicidal effect rating, SAGPY ([7]; 0.0625 kg/ha): 0.0
herbicidal effect rating, SAGPY ([7]; 0.1250 kg/ha): 0.0
herbicidal effect rating, SAGPY ([7]; 0.2500 kg/ha): 2.0
herbicidal rating GALAP (GALAP (Galium); rate 0.0156 kg/ha): 0.0
herbicidal rating GALAP (GALAP (Galium); rate 0.0313 kg/ha): 1.0
herbicidal rating GALAP (GALAP (Galium); rate 0.0625 kg/ha): 1.0
herbicidal rating AMBEL (AMBEL (Ragweed, Common); rate 0.0156 kg/ha): 9.0
herbicidal rating AMBEL (AMBEL (Ragweed, Common); rate 0.0313 kg/ha): 9.0
herbicidal rating AMBEL (AMBEL (Ragweed, Common); rate 0.0625 kg/ha): 9.0

COCCOC(=O)CN1C(=O)CSC1=Nc1cc(-n2c(=O)cc(C(F)(F)F)n(C)c2=O)c(F)cc1Cl [Compound 107, 2-Methoxyethyl 2-{{2-chloro-5-[3,6-dihydro-3-methyl-2,6-dioxo-4-(trifluoromethyl)-1(2H)-pyrimidinyl]-4-fluorophenyl}imino}-4-oxo-3-thiazolidineacetate]
MOOVA herbicidal effect rating (MOOVA (Monochoria); 0.0313 kg/ha): 4.0
MOOVA herbicidal effect rating (MOOVA (Monochoria); 0.0625 kg/ha): 6.0
MOOVA herbicidal effect rating (MOOVA (Monochoria); 0.1250 kg/ha): 7.0
MOOVA herbicidal effect rating (MOOVA (Monochoria); 0.2500 kg/ha): 9.0
Preemergence herbicidal rating ECHCG (ECHCG (Barnyardgrass); rate 0.0313 kg/ha): 0.0
Preemergence herbicidal rating ECHCG (ECHCG (Barnyardgrass); rate 0.0625 kg/ha): 0.0
Preemergence herbicidal rating ECHCG (ECHCG (Barnyardgrass); rate 0.1250 kg/ha): 0.0
Preemergence herbicidal rating ECHCG (ECHCG (Barnyardgrass); rate 0.2500 kg/ha): 1.0
Preemergence herbicidal rating ABUTH (ABUTH (Velvetleaf); rate 0.0313 kg/ha): 0.0
Preemergence herbicidal rating ABUTH (ABUTH (Velvetleaf); rate 0.0625 kg/ha): 1.0
Preemergence herbicidal rating ABUTH (ABUTH (Velvetleaf); rate 0.1250 kg/ha): 9.0
Preemergence herbicidal rating ABUTH (ABUTH (Velvetleaf); rate 0.2500 kg/ha): 9.0
Preemergence herbicidal rating TRZAWR ([1]; rate 0.0313 kg/ha): 0.0
Preemergence herbicidal rating TRZAWR ([1]; rate 0.0625 kg/ha): 0.0
Preemergence herbicidal rating TRZAWR ([1]; rate 0.1250 kg/ha): 0.0
Preemergence herbicidal rating TRZAWR ([1]; rate 0.2500 kg/ha): 4.0
Preemergence herbicidal rating IPOHE ([2]; rate 0.0313 kg/ha): 0.0
Preemergence herbicidal rating IPOHE ([2]; rate 0.0625 kg/ha): 0.0
Preemergence herbicidal rating IPOHE ([2]; rate 0.1250 kg/ha): 1.0
Preemergence herbicidal rating IPOHE ([2]; rate 0.2500 kg/ha): 7.0
herbicidal rating IPOHE ([3]; rate 0.0158 kg/ha): 9.0
herbicidal rating IPOHE ([3]; rate 0.0315 kg/ha): 7.0
herbicidal rating IPOHE ([3]; rate 0.0630 kg/ha): 9.0
Preemergence herbicidal rating GLXMAW ([4]; rate 0.0313 kg/ha): 0.0
Preemergence herbicidal rating GLXMAW ([4]; rate 0.0625 kg/ha): 1.0
Preemergence herbicidal rating GLXMAW ([4]; rate 0.1250 kg/ha): 2.0
Preemergence herbicidal rating GLXMAW ([4]; rate 0.2500 kg/ha): 3.0
herbicidal rating CASOB (CASOB (Sicklepod) [5]; rate 0.0158 kg/ha): 0.0
herbicidal rating CASOB (CASOB (Sicklepod) [5]; rate 0.0315 kg/ha): 0.0
herbicidal rating CASOB (CASOB (Sicklepod) [5]; rate 0.0630 kg/ha): 0.0
Preemergence herbicidal rating ZEAMX (ZEAMX (Corn, Field); rate 0.0313 kg/ha): 0.0
Preemergence herbicidal rating ZEAMX (ZEAMX (Corn, Field); rate 0.0625 kg/ha): 0.0
Preemergence herbicidal rating ZEAMX (ZEAMX (Corn, Field); rate 0.1250 kg/ha): 1.0
Preemergence herbicidal rating ZEAMX (ZEAMX (Corn, Field); rate 0.2500 kg/ha): 4.0
Preemergence herbicidal rating CASOB (CASOB (Sicklepod) [6]; rate 0.0313 kg/ha): 0.0
Preemergence herbicidal rating CASOB (CASOB (Sicklepod) [6]; rate 0.0625 kg/ha): 0.0
Preemergence herbicidal rating CASOB (CASOB (Sicklepod) [6]; rate 0.1250 kg/ha): 0.0
Preemergence herbicidal rating CASOB (CASOB (Sicklepod) [6]; rate 0.2500 kg/ha): 1.0
SAGPY herbicidal effect rating ([7]; 0.0313 kg/ha): 0.0
SAGPY herbicidal effect rating ([7]; 0.0625 kg/ha): 0.0
SAGPY herbicidal effect rating ([7]; 0.1250 kg/ha): 0.0
SAGPY herbicidal effect rating ([7]; 0.2500 kg/ha): 3.0
herbicidal rating GALAP (GALAP (Galium); rate 0.0158 kg/ha): 0.0
herbicidal rating GALAP (GALAP (Galium); rate 0.0315 kg/ha): 0.0
herbicidal rating GALAP (GALAP (Galium); rate 0.0630 kg/ha): 0.0
herbicidal rating AMBEL (AMBEL (Ragweed, Common); rate 0.0158 kg/ha): 2.0
herbicidal rating AMBEL (AMBEL (Ragweed, Common); rate 0.0315 kg/ha): 2.0
herbicidal rating AMBEL (AMBEL (Ragweed, Common); rate 0.0630 kg/ha): 2.0
